Results as given in paper PMC10331583, “Control of fibrosis with enhanced safety via asymmetric inhibition of prolyl‐tRNA synthetase 1” (EMBO Molecular Medicine, 2023).
Where “and” joins values, the source holds several entries; their conditions need not be identical. Identical values can stand only once. Like-named read-outs stand apart in the source and are kept apart here.

How the values were obtained:
[1] = CellTiter‐Glo assay, screen of HF derivatives; assay type: cell-based; settings: human, NHLF cells
Method: After 24 h, the cells were incubated with various concentrations of compounds for 48 h. The level of ATP as a measure of cell viability was determined using a CellTiter‐Glo® luminescent cell viability assay kit (Promega, G7571) following the manufacturer's instructions.

C57BL/6 mice = experiment: Bleomycin‐induced lung fibrosis, preventive model; assay type: in vivo; settings: 3 weeks
Method: In a preventive model of bleomycin‐induced lung fibrosis, all experiments were conducted following the international guidelines on the ethical use of experimental animals and approved by the Institutional Animal Care and Use Committee of Aragen Bioscience (17‐0331‐M‐1). C57BL/6 mice (6–7‐week‐old, male, obtained from Simonsen Laboratories) were randomized into groups (n = 10 for each group) such that mean body weights were similar for the different groups. Oral administration of the compounds (vehicle, DWN12088, and pirfenidone) was started a day before oropharyngeal administration of 70 μl bleomycin (2 units/kg). DWN12088 (3, 10, 30 mg/kg) was treated once a day while 100 mg/kg pirfenidone was treated twice a day (200 mg/kg/day) for 3 weeks, and then the outcome was analyzed.

[2] = Pharmacokinetic study (plasma, LC-MS/MS); assay type: in vivo, C57BL/6 male mice; settings: 3, 10 and 30 mg/kg, single dose, intravenous and oral
Method: All experiments were performed according to the guidelines on the Institutional Animal Care and Use Committee of QuBEST BIO (QBIACUC‐A21112). Seven‐week‐old C57BL/6 male mice were purchased from Samtako (Osan, South Korea) and fed with regular chow and water ad libitum for 1 week before the experiments. Nine C57BL/6 mice in each group received three single ascending doses (3, 10, and 30 mg/kg) of DWN12088 formulated in normal saline intravenously and orally in fasted conditions. Post‐dosing serial blood samples were obtained using eye bleeding into heparinized capillary tubes with composite sampling (three mice per time point) at predetermined time points. The plasma was separated from the whole blood by centrifugation at 15,000 g for 2 min at 4°C, and then the proteins were precipitated using acetonitrile containing a deuterated‐labeled DWN12088 as an internal standard (IS).
The amount of DWN12088 in mouse plasma was measured by the AB Sciex ExionLC HPLC system connected to an AB Sciex 6500+ Qtrap mass spectrometer equipped with an electrospray ionization (ESI) source (AB Sciex LLC, Framingham, MA, USA). […] The gradient elution program was set as follows: 0–1 min, 10% B; 1.0–1.5 min, 10–95% B; 1.5–3.6 min, 95% B; 4.0–6.0 min, 10% B. Multiple reaction monitoring (MRM) was selected for the quantification of DWN12088 and IS in positive ion mode. […]

[3] = design: method as in earlier work; settings: healthy adults; ref ANZCTR ACTRN12619001239156; ClinicalTrials.gov NCT04767815, NCT04888715, NCT04888728; cited from earlier work
[4] = Cytotoxicity assay in cells stably expressing PARS1 mutant; settings: human; for activity at 72 h, 3 µM: 3000 nM; for activity at 72 h, 30 µM: 30000 nM; for activity at 72 h, 100 µM: 100000 nM
[5] = test system: WI‐26 VA4 cells stably expressing PARS1 FA/EA/RL mutant; experiment: as above; settings: WI-26 VA4 Flag-PARS1 FA/EA/RL
[6] = test system: WI‐26 VA4 cells stably expressing EV (empty vector); settings: human, 72 h
[7] = test system: WI‐26 VA4 cells stably expressing PARS1 FA/EA/RL mutant; settings: human, 72 h
in vitro [8] = settings: human, Cytotoxicity
in vitro [9] = settings: human, Cytotoxicity; remark: listed apart in the source
[10] = Cytotoxicity, % of control (single replicates, Experiment #1-#4), WI-26 VA4 Flag-PARS1 FA/EA/RL
[11] = Cytotoxicity, % of control, average, WI-26 VA4 Flag-PARS1 FA/EA/RL
[12] = % of control (single replicates, Experiment #1-#4)

O[C@H]1CCCN[C@@H]1CCCn1cnc2c(Cl)c(Cl)ccc21 [DWN12088]
CC50 at 48 h [1]: > 100 µM | fibrotic properties (modified Ashcroft score, lung weight, collagen content in BALF) (C57BL/6 mice; 10 mg/kg once a day): alleviated fibrotic properties | fibrotic properties (modified Ashcroft score, lung weight, collagen content in BALF) (C57BL/6 mice; 30 mg/kg once a day): alleviated fibrotic properties | plasma concentrations [2]: higher at 30 mg/kg | safety in phase 1 studies [3]: validated its safety in phase 1 studies | CC50 at 72 h [4]: 11.8 µM | IC50 at 72 h [4]: 11.8 µM | activity at 72 h, 3 µM [4, 10]: 85.2% | activity at 72 h, 30 µM [4, 10]: 25.3% | activity at 72 h, 100 µM [4, 10]: 22.8% | activity at 72 h, 0.01 µM ([4]; Cytotoxicity, % of control, average, WI-26 VA4 Flag-PARS1 FA/EA/RL, 10 nM): 110% | activity at 72 h, 0.03 µM ([4]; Cytotoxicity, % of control, average, WI-26 VA4 Flag-PARS1 FA/EA/RL, 30 nM): 107% | activity at 72 h, 0.1 µM ([4]; Cytotoxicity, % of control, average, WI-26 VA4 Flag-PARS1 FA/EA/RL, 100 nM): 110% | activity at 72 h, 0.3 µM ([4]; Cytotoxicity, % of control, average, WI-26 VA4 Flag-PARS1 FA/EA/RL, 300 nM): 107% | activity at 72 h, 1 µM ([4]; Cytotoxicity, % of control, average, WI-26 VA4 Flag-PARS1 FA/EA/RL, 1000 nM): 111% | activity at 72 h, 3 µM [4, 11]: 81.7% | activity at 72 h, 10 µM ([4]; Cytotoxicity, % of control, average, WI-26 VA4 Flag-PARS1 FA/EA/RL, 10000 nM): 68.8% | activity at 72 h, 30 µM [4, 11]: 19.5% | activity at 72 h, 100 µM [4, 11]: 20.1% | activity at 72 h, 300 µM ([4]; Cytotoxicity, % of control, average, WI-26 VA4 Flag-PARS1 FA/EA/RL, 300000 nM): 1.1% | activity at 72 h, 1000 µM ([4]; Cytotoxicity, % of control, average, WI-26 VA4 Flag-PARS1 FA/EA/RL, 1000000 nM): 0% | Cytotoxicity, % of control (single replicates, Experiment #1-#4) ([5]; 10 nM, 0.01 µM): 127.65 % of control and 116.09 % of control and 111.66 % of control and 110.83 % of control and 101.75 % of control and 99.44 % of control and 110.49 % of control and 101.49 % of control | Cytotoxicity, % of control (single replicates, Experiment #1-#4) ([5]; 30 nM, 0.03 µM): 126.96 % of control and 104.11 % of control and 114.08 % of control and 105.16 % of control and 106.38 % of control and 115.03 % of control and 93.72 % of control and 92.87 % of control | Cytotoxicity, % of control (single replicates, Experiment #1-#4) ([5]; 100 nM, 0.1 µM): 127.60 % of control and 108.47 % of control and 113.70 % of control and 109.71 % of control and 111.06 % of control and 113.53 % of control and 98.60 % of control and 94.80 % of control | Cytotoxicity, % of control (single replicates, Experiment #1-#4) ([5]; 300 nM, 0.3 µM): 132.76 % of control and 113.23 % of control and 105.15 % of control and 116.43 % of control and 104.37 % of control and 100.43 % of control and 94.90 % of control and 90.64 % of control | Cytotoxicity, % of control (single replicates, Experiment #1-#4) ([5]; 1000 nM, 1 µM): 112.40 % of control and 100.20 % of control and 107.27 % of control and 121.00 % of control and 132.94 % of control and 130.17 % of control and 95.86 % of control and 86.64 % of control | Cytotoxicity, % of control (single replicates, Experiment #1-#4) ([5]; 3000 nM, 3 µM): 71.51 % of control and 74.54 % of control and 81.32 % of control and 80.03 % of control and 89.57 % of control and 88.20 % of control and 83.52 % of control | Cytotoxicity, % of control (single replicates, Experiment #1-#4) ([5]; 10000 nM, 10 µM): 63.68 % of control and 53.80 % of control and 76.80 % of control and 69.72 % of control and 64.84 % of control and 73.82 % of control and 81.37 % of control and 66.19 % of control | Cytotoxicity, % of control (single replicates, Experiment #1-#4) ([5]; 30000 nM, 30 µM): 25.76 % of control and 18.61 % of control and 17.42 % of control and 17.01 % of control and 19.68 % of control and 18.20 % of control and 14.25 % of control | Cytotoxicity, % of control (single replicates, Experiment #1-#4) ([5]; 100000 nM, 100 µM): 21.16 % of control and 22.59 % of control and 20.38 % of control and 17.48 % of control and 18.26 % of control and 18.73 % of control and 19.25 % of control | Cytotoxicity, % of control (single replicates, Experiment #1-#4) ([5]; 300000 nM, 300 µM): 1.23 % of control and 1.09 % of control and 1.22 % of control and 0.52 % of control and 1.28 % of control and 1.77 % of control and 1.38 % of control and 0.29 % of control | Cytotoxicity, % of control (single replicates, Experiment #1-#4) ([5]; 1000000 nM, 1000 µM): 0.10 % of control and -0.10 % of control and 0.29 % of control and -0.29 % of control and 0.16 % of control and -0.16 % of control and 0.22 % of control and -0.22 % of control | Cytotoxicity HillSlope (best-fit value) ([5]; log(inhibitor) vs. response, variable slope (four parameters)): -1.118 | Cytotoxicity LogIC50 (best-fit value) ([5]; log(inhibitor) vs. response, variable slope (four parameters), concentration in nM): 4.071

O=C(CC1NCCCC1O)Cn1cnc2cc(Br)c(Cl)cc2c1=O (stereo not drawn) [HF, Halofuginone, reference compound]
TI (CC50/IC50 for collagen level) (WI‐26 VA4 cells): 3.46 | Cytotoxicity HillSlope (best-fit value) [6]: -0.8001 | Cytotoxicity LogIC50 (best-fit value) [6]: 1.811 | Cytotoxicity HillSlope (best-fit value) [7]: -0.8245 | Cytotoxicity LogIC50 (best-fit value) [7]: 1.805 | activity at 72 h, 0.1 µM (in vitro [8]; [12]): 34.2% | activity at 72 h, 0.001 µM (in vitro [8]; % of control, average): 101% | activity at 72 h, 0.003 µM (in vitro [8]; % of control, average): 107% | activity at 72 h, 0.03 µM (in vitro [8]; % of control, average): 73.6% | activity at 72 h, 0.1 µM (in vitro [8]; % of control, average): 42.5% | activity at 72 h, 1 µM (in vitro [8]; % of control, average): 19.4% | activity at 72 h, 0.001 µM (in vitro [9]; [12]): 107% | activity at 72 h, 0.01 µM (in vitro [9]; [12]): 96.3% | activity at 72 h, 0.03 µM (in vitro [9]; [12]): 71.4% | activity at 72 h, 0.3 µM (in vitro [9]; [12]): 34.8% | activity at 72 h, 0.001 µM (in vitro [9]; % of control, average): 106% | activity at 72 h, 0.003 µM (in vitro [9]; % of control, average): 109% | activity at 72 h, 0.03 µM (in vitro [9]; % of control, average): 76.1% | activity at 72 h, 0.1 µM (in vitro [9]; % of control, average): 41.8% | activity at 72 h, 1 µM (in vitro [9]; % of control, average): 20%
